Reference: US20070225255A1, “Use of Mitochondrially Targeted Antioxidant in the Treatment of Liver Diseases and Epithelial Cancers” (priority 2004, published 2007)

Columns and labels:
HepG2 cells = test: ROS production (DCF fluorescence) in HepG2 cells, basal and CoCl2 stimulated; type: cell-based, human
Procedure: Alternatively, the generation of ROS is measured by using the fluoroprobe 5-(and-6)-chloromethyl-2′,7′-dichlorodihydrofluorescein diacetate acetyl ester (CM-H2DCFDA, Molecular Probes, Goettingen, Germany) which is converted to fluorescent dichlorofluorescien (DCF; Djordjevic T. et al., 2004, Antioxidants & Redox Signaling, 6: 713-720). To determine DCF fluorescence in a microplate reader (Tecan, Crailsheim, Germany), cells (e.g. HepG2, Hep3B or SNU-398) are grown in 96-well plates to 80% confluency. […] After several washes with HBSS to remove excess dye, fluorescence is monitored by using 480 nm excitation and 540 nm emission wavelength. DCF fluorescence is standardized to the number of viable cells using the Alamar Blue test according to the manufacturer's instructions (Biosource, Nivelles, Belgium). […] The absorbance is then measured at the wavelength of […].
In another experiment HepG2 stimulated by 100 μM CoCl2 (Sigma) are used (Bel Aiba R. S. et al., 2004,. Biol Chem. 385:249-57). […] The fluorescence is measured in a plate-reader (Tecan Safire) after 0, 10, 20 and 30 minutes (Djordjevic T, et al., 2005, Free Radic Biol Med. 38:616-30).

[1] = according to Jauslin M. L. et al., 2003, FASEB J.; cited from earlier work
[2] = system: DDC- or GF intoxicated mice; test: Toxic memory effect upon reintoxication with DDC or GF after recovery; type: in vivo, mouse; conditions: 10 weeks DDC or GF, 4 weeks recovery, reexposure 24 to 72 hours with simultaneous treatment
Source text: Mouse livers respond to DDC- or GF intoxication first with ballooning of hepatocytes and formation of a denser keratin IF network. After around 6 weeks of intoxication, ballooned hepatocytes show a reduced density of the keratin IF and early MBs can be observed as fine granules associated with the keratin IF network. Continuation of intoxication leads to the appearance of large MBs typically located in the perinuclear cytoplasmic region. […] Upon cessation of intoxication, MBs disappear within several weeks. At 4 weeks of recovery from intoxication, there are groups of hepatocytes devoid of cytoplasmic keratin filaments but still containing small remnants of MBs at the cell periphery in association with desmosomes. If such mice are reexposed to DDC or GF numerous MBs reappear within 24 to 72 hours (Stumptner C. et al., 2001, J. Hepatol., 34: 665-675). This enhanced formation of MBs upon reintoxication was interpreted—in analogy to allergic reactions—as a toxic memory effect.
In another set of experiments, 10 week-intoxication of mice with DDC or GF is followed by 4 weeks of recovery.

DDC intoxicated mice [3] = test: Serum parameters of liver damage in DDC intoxicated mice; type: in vivo, mouse; conditions: DDC 3 days, simultaneous MitoQ 3, 6 and 12 mg/kg
Procedure: In serum from various animal groups the activity of serum liver enzymes indicating liver damage, namely bilirubin, alanine aminotransferase (ALT/GPT; in diagram represented by white bars), aspartate aminotransferase (ASAT/GOT in diagram represented by black bars) are determined according to standard protocols in clinical diagnostics by employing commercially available kits (No: 11552414; 11876805216; 11876848216 all purchased by Roche AG, Switzerland) on a Hitachi/Roche 917 Analyser.
In serum from various tested animal groups following parameters indicating liver damage, namely bilirubin, alanine aminotransferase (ALT/GPT), aspartate aminotransferase (ASAT/GOT) and glutamate dehydrogenase (GLDH) are determined according to standard protocols in clinical diagnostics employing commercially available kits (No: 11552414; 11876805216; 11876848216; 11929992 all purchased by Roche AG, Switzerland) on a Hitachi/Roche 917 Analyser.

[4] = system: fatty acid binding protein (FABP); test: Western blot of fatty acid binding protein in DDC intoxicated mice; type: in vivo, mouse; conditions: MitoQ treatment of DDC intoxicated animals
Procedure: The protein expression level(s) of fatty acid binding protein (FABP) representing a sensitive marker for hepatocyte damage (Monbaliu D . et al., 2005, Transplant Proc. 37(1):413-416) is determined.

DDC intoxicated mice [5] = test: Short term (3 days) DDC intoxication, liver histology (H&E); conditions: DDC 3 days
Procedure: Liver samples prepared according to Example 1 are used for simple histologic staining such as with haematoxylin and eosin (Luna L. G., 1968, Manual of Histologic staining methods of the Armed Forces Institute of Pathology, 3rd edition. McGraw Hill, New York). Furthermore, single-label immunohistochemistry or double-label immunoflourescence microscopy is performed to detect MBs in tested animals.
In another set of experiments 3 to 12 mg/kg of MitoQ dissolved in 1% of DMSO in PBS is given intraperitoneally simultaneously to DDC intoxicated mice for 3 days and compared to control animals (positive control group represents DDC intoxicated mice whereas negative control represents non DDC intoxicated but vehicle injected animals).

[6] = system: mitochondria within isolated cells; conditions: in vitro; cited from earlier work

## MitoQ
HepG2 cells; HepG2 cells, 100 μM CoCl2, 5 μM MitoQ
  CoCl2-stimulated ROS production (relative DCF fluorescence): significantly decrease
HepG2 cells; unstimulated HepG2 cells, 5 μM MitoQ
  basal ROS production (relative DCF fluorescence): significantly decrease
[1]
  EC50: 0.51 nM
[2]
  toxic memory effect (reappearance of MBs): reduced or abolished
DDC intoxicated mice [3]
  alanine aminotransferase (ALT/GPT) serum activity: most prominent reduction
  aspartate aminotransferase (AST/GOT) serum activity: reduction of enzymatic activity
DDC intoxicated mice [3]; data not shown
  bilirubin in serum: remains without any changes
[4]
  FABP protein expression: reaches almost control mice FABP protein expression values
DDC intoxicated mice [5]; simultaneous MitoQ 6 mg/kg
  inflammatory cells around the portal vein: Absence of inflammatory cells
  morphology of the hepatocytes (size and morphology of nuclei, structure of cytoplasm): normal
DDC intoxicated mice [5]; simultaneous MitoQ in PBS/1% DMSO, 6 mg/kg
  liver architecture (strands of hepatocytes bordered by sinusoids): normal architecture again is visible
[6]
  accumulation by mitochondria: rapidly and selectively accumulated by mitochondria
